# Test system: IMR-32 neuroblastoma cell line
# Assay: Inhibition of erastin-induced ferroptosis in IMR-32 cells (Sytox Green cell death readout)
# Format: cell-based
# Settings: Homo sapiens; inhibiting ferroptosis in the IMR-32 neuroblastoma cell line stimulated with 10 μM erastin; compounds 1 nM to 1 μM, triplicate
# Method: In the present disclosure, the potency of a compound inhibiting (or reducing) ferroptosis and/or oxytosis are determined in in vitro or in vivo assays. Typically in vitro assays are used to measure the potency of a candidate compound. Examples of suitable in vitro assays are cellular assays. One non-limiting example of an assay involves the use of the IMR-32 neuroblastoma cell line. The latter is stimulated to enter into ferroptosis upon stimulation with 10 μM erastin, a documented ferroptosis inducer (see, for example, Dixon et al. (2012) Cell 149, 1060-1072, and ferroptosis inhibitors are evaluated for the prevention of erastin-induced ferroptosis. Yet another assay is based the glutamate-induced cell death in the hippocampal cell line HT22 and ferroptosis/oxytosis inhibitors are evaluated for the prevention of cell death (see N. Henke et al. (2013) Cell Death and Disease 4, e470). Still another assay is based on the sorafinib-induced cell death (described to be iron dependent cell death) in hepatocellular carcinoma cells and ferroptosis inhibitors are evaluated for the prevention of cell death (see C. Louandre et al. (2013) Int. J. Cancer 133, 1732). The calculated potency of a compound inhibiting ferroptosis and/or oxytosis is typically depicted as an IC50 value. Examples of suitable in vivo assays are typically pre-clinical disease models of, for example, mice for the diseases benefiting the application of ferroptosis and/or oxytosis inhibitors, as described herein. One non-limiting example of an in vivo assay is based on inducing liver damage in mice by administering the herbicide diquat dibromide monohydrate and ferroptosis inhibitors are evaluated based on reduced levels of liver transaminases in serum (see Q. Ran et al. (2004) J. Biol. Chem. 279, 53, 55137).
# The IC50 values for the individual compounds of the disclosure were determined in the neuroblastoma, IMR-32 cell line. In brief, IMR-32 cells were subjected to 10 μM erastin, the latter compound is known to induce ferroptosis. A concentration gradient (ranging from 1 nM to 1 μM) of the compounds was applied to the cells. These experiments were performed in a 96-well format (in triplicate), and cell death was analyzed in a fluorescent plate reader by use of a fluorescent cell death dye (1.5 μM Sytox Green). The IC50 values depicted in Table 1 are the concentration values for the individual compounds which are able to overcome ferroptosis.
row,SMILES,IC50
1,"CC(C)(C)NS(=O)(=O)c1ccc(NC2CCCCC2)c(N)c1 [Compound 28, 3-amino-N-(tert-butyl)-4-(cyclohexylamino)benzenesulfonamide]",0.027 µM
2,"CCNS(=O)(=O)c1ccc(NC2CC2)c(NCc2ccncc2)c1 [Compound 34, 4-(cyclopropylamino)-N-ethyl-3-((pyridin-4-ylmethyl)amino)benzenesulfonamide]",0.128 µM
3,"CCNS(=O)(=O)c1ccc(NC2CC3CCC2C3)c(NCc2ccncc2)c1 (centres unmarked) [Compound 41, 4-(bicyclo[2.2.1]heptan-2-ylamino)-N-ethyl-3-((pyridin-4-ylmethyl)amino) benzenesulfonamide]",0.0094 µM
4,"CCNS(=O)(=O)c1ccc(NC2CCCCCCC2)c(N)c1 [Compound 24, 3-amino-4-(cyclooctylamino)-N-ethylbenzenesulfonamide]",0.0093 µM
5,"CNS(=O)(=O)c1ccc(NC2C3CC4CC(C3)CC2C4)c(NCc2ccncc2)c1 (centres unmarked) [Compound 50, 4-(adamantan-2-ylamino)-N-methyl-3-((pyridin-4-ylmethyl)amino)benzenesulfonamide]",0.0064 µM
6,"CC(C)(C)OCCNS(=O)(=O)c1ccc(NC2CCCCC2)c(NCc2ccccc2)c1 [Compound 55, 3-(benzylamino)-N-(2-(tert-butoxy)ethyl)-4-(cyclohexylamino)benzenesulfonamide]",0.022 µM
7,"CCNS(=O)(=O)c1ccc(NC2CCCC2)c(NCc2ccncc2)c1 [Compound 36, 4-(cyclopentylamino)-N-ethyl-3-((pyridin-4-ylmethyl)amino)benzenesulfonamide]",0.036 µM
8,"CNS(=O)(=O)c1ccc(NC2CCCCC2)c(NCc2ccccc2)c1 [Compound 47, 3-(benzylamino)-4-(cyclohexylamino)-N-methylbenzenesulfonamide]",0.0037 µM
9,"CCNS(=O)(=O)c1ccc(NC2CC3CCC2C3)c(NCc2ccccc2)c1 (centres unmarked) [Compound 40, 3-(benzylamino)-4-(bicyclo[2.2.1]heptan-2-ylamino)-N-ethylbenzenesulfonamide]",0.003 µM
10,"CNS(=O)(=O)c1ccc(NC2CCCCC2)c(NCc2ccncc2)c1 [Compound 48, 4-(cyclohexylamino)-N-methyl-3-((pyridin-4-ylmethyl)amino)benzenesulfonamide]",0.015 µM
11,"CNS(=O)(=O)c1ccc(NC2CCCCC2)c(N)c1 [Compound 26, 3-amino-4-(cyclohexylamino)-N-methylbenzenesulfonamide]",0.076 µM
12,"CC(C)(C)NS(=O)(=O)c1ccc(NC2CCCCC2)c(NCc2ccncc2)c1 [Compound 52, N-(tert-butyl)-4-(cyclohexylamino)-3-((pyridin-4-ylmethyl)amino)benzenesulfonamide]",0.011 µM
13,"CNS(=O)(=O)c1ccc(NC2C3CC4CC(C3)CC2C4)c(N)c1 (centres unmarked) [Compound 27, 3-amino-4-(adamantan-2-ylamine)-N-methylbenzenesulfonamide]",0.011 µM
14,"CCNS(=O)(=O)c1ccc(NC2CCCCCCC2)c(NCc2ccccc2)c1 [Compound 42, 3-(benzylamino)-4-(cyclooctylamino)-N-ethylbenzenesulfonamide]",0.0024 µM
15,"CCNS(=O)(=O)c1ccc(NC2CCCC2)c(NCc2ccccc2)c1 [Compound 35, 3-(benzylamino)-4-(cyclopentylamino)-N-ethylbenzenesulfonamide]",0.0082 µM
16,"CCNS(=O)(=O)c1ccc(NC2CC2)c(N)c1 [Compound 20, 3-amino-4-(cyclopropylamino)-N-ethylbenzenesulfonamide]",0.076 µM
17,"CC(C)(C)NS(=O)(=O)c1ccc(NC2C3CC4CC(C3)CC2C4)c(N)c1 (centres unmarked) [Compound 29, 3-amino-N-(tert-butyl)-4-(adamantan-2-ylamine)benzenesulfonamide]",0.006 µM
18,"CC(C)(C)NS(=O)(=O)c1ccc(NC2C3CC4CC(C3)CC2C4)c(NCc2ccncc2)c1 (centres unmarked) [Compound 54, 4-(adamantan-2-ylamino)-N-(tert-butyl)-3-((pyridin-4-ylmethyl)amino)benzenesulfonamide]",0.0052 µM
19,"CC(C)(C)NS(=O)(=O)c1ccc(NC2C3CC4CC(C3)CC2C4)c(NCc2ccccc2)c1 (centres unmarked) [Compound 53, 4-(adamantan-2-ylamino)-3-(benzylamino)-N-(tert-butyl)benzenesulfonamide]",0.0034 µM
20,"CCNS(=O)(=O)c1ccc(NC2CCCCCCC2)c(NCc2ccncc2)c1 [Compound 43, 4-(cyclooctylamino)-N-ethyl-3-((pyridin-4-ylmethyl)amino)benzenesulfonamide]",0.022 µM
21,"CCNS(=O)(=O)c1ccc(NC2CCCC2)c(N)c1 [Compound 21, 3-amino-4-(cyclopentylamino)-N-ethylbenzenesulfonamide]",0.082 µM
22,"CCNS(=O)(=O)c1ccc(NC2C3CC4CC(C3)CC2C4)c(NCc2cncnc2)c1 (centres unmarked) [Compound 46, 4-(adamantan-2-ylamino)-N-ethyl-3-((pyrimidin-5-ylmethyl)amino)benzenesulfonamide]",0.047 µM
23,"CCNS(=O)(=O)c1ccc(NC2C3CC4CC(C3)CC2C4)c(N)c1 (centres unmarked) [Compound 25, 4-(adamantan-2-ylamino)-3-amino-N-ethylbenzenesulfonamide]",0.017 µM
24,"CCNS(=O)(=O)c1ccc(NC2CCCCC2)c(NCc2ccncc2)c1 [Compound 38, 4-(cyclohexylamino)-N-ethyl-3-((pyridin-4-ylmethyl)amino)benzenesulfonamide]",0.023 µM
25,"CNS(=O)(=O)c1ccc(NC2C3CC4CC(C3)CC2C4)c(NCc2ccccc2)c1 (centres unmarked) [Compound 49, 4-(adamantan-2-ylamino)-3-(benzylamino)-N-methylbenzenesulfonamide]",0.0049 µM
26,"CCNS(=O)(=O)c1ccc(NC2CC2)c(NCc2ccccc2)c1 [Compound 33, 3-(benzylamino)-4-(cyclopropylamino)-N-ethylbenzenesulfonamide]",0.061 µM
27,"CC(C)(C)NS(=O)(=O)c1ccc(NC2CCCCC2)c(NCc2ccccc2)c1 [Compound 51, 3-(benzylamino)-N-(tert-butyl)-4-(cyclohexylamino)benzenesulfonamide]",0.0062 µM
28,"CCNS(=O)(=O)c1ccc(NC2CC3CCC2C3)c(N)c1 (centres unmarked) [Compound 23, 3-amino-4-(bicyclo[2.2.1]heptan-2-ylamino)-N-ethylbenzenesulfonamide]",0.028 µM
29,"CC(C)(C)OCCNS(=O)(=O)c1ccc(NC2CCCCC2)c(N)c1 [Compound 30, 3-amino-N-(2-(tert-butoxy)ethyl)-4-(cyclohexylamino)benzenesulfonamide]",0.132 µM

# — patent publication US9862678B2, “3,4-diaminobenzenesulfonamide derivatives for inhibiting cell death” (VIB VZW, priority 2014, dated 2018)
